Laboratory results as given in ChEMBL document CHEMBL1144002, “N6-substituted C5'-modified adenosines as A1 adenosine receptor agonists” (Bioorg Med Chem, 2008).

Legend:
[1] = system: Adenosine receptor A1 (Mesocricetus auratus); test: Ratio of Ki to IC50 for adenosine A1 receptor
[2] = target: Adenosine receptor A1 (Mesocricetus auratus); test: Displacement of [3H]CPX from adenosine A1 receptor in DDT1MF-2 cells
[3] = system: Adenosine receptor A1 (Mesocricetus auratus); test: Intrinsic activity at adenosine A1 receptor assessed as maximal inhibition of isoproterenol-stimulated cAMP accumulation in DDT1MF-2 cells relative to CPA
[4] = target: Adenosine receptor A1 (Mesocricetus auratus); test: Agonist activity at adenosine A1 receptor assessed as inhibition of isoproterenol-stimulated cAMP accumulation in DDT1MF-2 cells

Row | Ratio [1] | Ki [2] | Intrinsic activity [3] | IC50 [4] | Compound
1 | 1.3 | 3930 nM | 0.92 | 351 nM | NC[C@H]1O[C@@H](n2cnc3c(N[C@H]4C[C@H]5CC[C@H]4C5)ncnc32)[C@H](O)[C@@H]1O
2 | 1.3 | 7200 nM | 0.91 | 4950 nM | CCCNC[C@H]1O[C@@H](n2cnc3c(N[C@H]4C[C@H]5CC[C@H]4C5)ncnc32)[C@H](O)[C@@H]1O
3 | 1.3 | 122 nM | 1.04 | 28 nM | CCSC[C@H]1O[C@@H](n2cnc3c(N[C@H]4C[C@H]5CC[C@H]4C5)ncnc32)[C@H](O)[C@@H]1O
4 | 1.3 | 283 nM | 1 | 224 nM | O[C@@H]1[C@H](O)[C@@H](CS)O[C@H]1n1cnc2c(N[C@H]3C[C@H]4CC[C@H]3C4)ncnc21
5 | 1.3 | > 10000 nM | 0.83 | 867 nM | CNC[C@H]1O[C@@H](n2cnc3c(N[C@H]4C[C@H]5CC[C@H]4C5)ncnc32)[C@H](O)[C@@H]1O
6 | 1.3 | 5860 nM | 0.97 | 605 nM | CC(=O)NC[C@H]1O[C@@H](n2cnc3c(N[C@H]4C[C@H]5CC[C@H]4C5)ncnc32)[C@H](O)[C@@H]1O
7 | 1.3 | 17 nM | 0.97 | 7 nM | O[C@@H]1[C@H](O)[C@@H](CF)O[C@H]1n1cnc2c(N[C@H]3C[C@H]4CC[C@H]3C4)ncnc21

Row | Compound | Ratio [1] | Ki [2] | Intrinsic activity [3] | IC50 [4]
8 | CCNC(=O)[C@H]1O[C@@H](n2cnc3c(N[C@H]4C[C@@H]5C[C@@H]4C4SC45)ncnc32)[C@H](O)[C@@H]1O (stereo partly drawn) | 1.3 | 0.9 nM | 0.98 | 0.12 nM
9 | C[Se]C[C@H]1O[C@@H](n2cnc3c(N[C@H]4C[C@@H]5C[C@@H]4C4SC45)ncnc32)[C@H](O)[C@@H]1O (stereo partly drawn) | 1.3 | 30 nM | 0.96 | 12 nM
10 | CCSC[C@H]1O[C@@H](n2cnc3c(NC4CCCC4)ncnc32)[C@H](O)[C@@H]1O | – | 173 nM | 1.02 | 21 nM
11 | CNC(=O)O[C@H]1O[C@@H](n2cnc3c(N[C@H]4C[C@@H]5C[C@@H]4C4SC45)ncnc32)[C@H](O)[C@@H]1O (stereo partly drawn) | 1.3 | 590 nM | 1.03 | 410 nM
